Data set [1] can be described thus: Stability on storage and in water or solvents (TLC and NMR monitoring). In kind it is physicochemical. The method, then: Taurine (1.5 g) was suspended in a mixture of methanol (50 mL) and 4 M aqueous hydrochloric acid (25 mL). To this was added in small aliquots 4-6% aqueous sodium hypochlorite (40 mL) with stirring. The taurine dissolved with evolution of gentle heat. After 2 h the solution was concentrated (below 30° C.) to a small volume. Ethanol (200 mL) was added and the precipitated sodium chloride was removed by filtration. This procedure was repeated until no more precipitate formed. After concentration to a small volume of oily residue, 50/50 methanol-ethyl acetate (100 mL) was added, and the mixture was again filtered to remove residual sodium chloride. Upon reconcentration, the residue was treated with 0.04 M aqueous hydrochloric acid in acetone (25 mL). Slow concentration yielded white, iridescent plates, (0.7 g). […] Detection was by spraying with 2% KI-starch (yellow-brown) followed by ethanolic ninhydrin (faintly pink); M.P. 148° C. UV (λmax) 310 nm (ε1.851×10^2, 95% ethanol); ^1Hmr (D2O) 3.05-3.2(2H, m) and 3.95-4.05(2H, m); MS (es−): 191.9(18.76%), 193.8 (13.41%), 195.8(2.83%).
(§1) The chlorinaton and desalting methodology was essentially similar to that for taurine. […] Final isolation was from 50/50 (^v/v) diethylether-methanol plus dichloromethane, followed by slow evaporation at approximately 0-4° C. M.P. 197° C.; UV: λmax 308 (ε1.486×10^2, 95% ethanol); ^1Hmr (D2O) δ: 2.05-2.15 (2H, m, αCH2), 2.95-3.05 (2H, m, βCH2), 3.9-4.0 (2H, m, γCH2); MS (es−): 205.9(1.4%), 207.9(0.88%), 210.0(0.31%).
N,N-dichloro-GABA: UV: λmax 308 nm (ε2.974×10^2, 95% ethanol); ^1Hmr (CDCl3) δ: 1.95-2.05 (2H, m,αCH2), 2.4-2.5 (2H, m, βCH2), 3.6-3.75 (2H, m, γCH2). Decomposition in water was about 50% in 3 h at room temperature (TLC monitored). […]
The procedure for the synthesis of N′N′-dichloro-leucine was identical to that for the dichloroGABA. The product is a pale-yellow oil. When stored in dichloromethane, at −10° C.; the compound readily decomposed with an approximate half-life of 1 h.
From the above Examples it is apparent that dichlorination of ω-amino acids yields products which vary considerably in their stability. […] The most important precaution required for stable storage is the removal of all traces of water. […] A yield of between 30-60% was obtained, which can be improved by more efficiently exploiting the fact that primary amines are far less soluble than their chlorinated products in non-polar solvents. Those of ordinary skill in the art will recognize that the methods for isolation of the chlorinated amino acids described here can be extended to other α-carboxyl amino acids, as well as peptides and proteins.

Data set [2] is described as follows: Solubility in nonpolar solvents. The following applies: compared with taurine homologue. Type of data set: physicochemical. The method, then:
as §1

For data set [3], the system named is mice. As to conditions: mice (20 g), 200 mg/Kg.
Protocol: Two other mice (20 g) received dichlorotaurine (0.1 mL=100 mg/Kg) s.c. at 60 min intervals for three hours.

From patent US6451761B1, “N′N′-dichlorinated omega-amino acids and uses thereof” (Queen's University at Kingston, priority 1999, dated 2002) come the findings set out here.

The term melting point denotes the temperature, or range, at which the solid turns liquid.

In the case of `O=S(=O)(O)CCCN(Cl)Cl` [dichlorohomotaurine, N,N-dichlorohomotaurine], the melting point came out at 197 °C. For the same compound, in data set [1], the hygroscopicity result is given as “Fairly hygroscopic”. The “stability in a humid atmosphere” value in data set [1] (humid atmosphere, compared with taurine homologue) was “more unstable than its taurine homologue”. In data set [1] (in water, read-out: t1/2 of decomposition to homotaurine (converted)), the half-life is 24 h. The “solubility in nonpolar solvents” value in data set [2] is reported as “more soluble in nonpolar solvents”. For the same compound, the behaviour following injection result in data set [3] is given as “almost indistinguishable from that observed with the taurine homologue”.
